Measurements: the OligoGym collection
Where “and” joins values, the source holds several entries; their conditions need not be identical. Equal values may be shown once. After the bases stand the sugars from the 5' end (letter, count) and the backbone: PS all phosphorothioate, else s phosphorothioate and o phosphodiester by linkage. Methylation of C is not given here. e = 2'-O-(2-methoxyethyl) (MOE); k = constrained ethyl (cEt); d = 2'-deoxy (DNA)

Molecular target: IRF4
Details: ASO

| Sequence | target mRNA inhibition (SK-MEL-28, 4 µM) | target mRNA inhibition (MM.1R, 1 µM) | also measured |
| --- | --- | --- | --- |
| GTCCAGAGTCTTCAGA (sugars k3 d10 k3, PS) | 6% | – | – |
| GTCCCTCCAGCTTCGG (sugars k3 d10 k3, PS) | 3% | – | – |
| GTCCGACGCACCGCGG (sugars k3 d10 k3, PS) | 18% | – | – |
| GTCCGCCCCGCGCGGT (sugars k3 d10 k3, PS) | – | 3% | – |
| GTCGAACCTCTGGTTC (sugars k3 d10 k3, PS) | -10% | – | – |
| GTCGCGCAAGTCTACA (sugars k3 d10 k3, PS) | – | 4% and 16% | – |
| GTCTAAACCAGCATAT (sugars k3 d10 k3, PS) | 19% | – | – |
| GTCTAAAGTCCCATCG (sugars k3 d10 k3, PS) | 40% | – | – |
| GTCTATGGGATTATAT (sugars k3 d10 k3, PS) | 21% | – | – |
| GTCTCAGTTTGAAGCA (sugars k3 d10 k3, PS) | 69% and 74% | – | – |
| GTCTGGCTAGCAGAGG (sugars k4 d8 k4, PS) | 9% | – | – |
| GTGAAAACACTCATGG (sugars k3 d10 k3, PS) | 60% | – | – |
| GTGATAGCTGAGCTGA (sugars k2 d9 e3 k2, PS) | – | 13% | – |
| GTGATAGCTGAGCTGA (sugars k3 d10 k3, PS) | – | 70% and 75% | target mRNA inhibition (H929, 0.04 µM): 51% and 42%; target mRNA inhibition (KMS11, 0.2 µM): 77% and 89%; target mRNA inhibition (MM.1R, 0.0625 µM): 13% and 17%; target mRNA inhibition (MM.1R, 0.25 µM): 38% and 47%; target mRNA inhibition (MM.1R, 4 µM): 89% and 88% |
| GTGATAGCTGAGCTGA (sugars kkddddddddddkeke, PS) | – | 35% | – |
| GTGATAGCTGAGCTGA (sugars kkdddddddddekeke, PS) | – | 24% | – |
| GTGATAGGTATACTTA (sugars k3 d10 k3, PS) | 65% | – | – |
| GTGATGTCAGGTTTTC (sugars k3 d10 k3, PS) | – | 66% | target mRNA inhibition (MM.1R, 0.074 µM): 11%; target mRNA inhibition (MM.1R, 0.222 µM): 38%; target mRNA inhibition (MM.1R, 0.666 µM): 66%; target mRNA inhibition (MM.1R, 2 µM): 90% |
| GTGATGTCAGGTTTTC (sugars kkddddddddddkeke, PS) | – | 18% | – |
| GTGGAACTCATAGGTG (sugars k3 d10 k3, PS) | 53% | – | – |
| GTGGGTCCCAAGATCG (sugars k3 d10 k3, PS) | 40% | – | – |
| GTGTAAGGTCTGAGAG (sugars k3 d10 k3, PS) | 16% | – | – |
| GTGTCTAAAGTCCCAT (sugars kddddddddddkekek, PS) | – | 34% and 23% | – |
| GTGTGCTTGCCAAGCC (sugars k3 d10 k3, PS) | – | 66% and 63% | target mRNA inhibition (MM.1R, 0.0625 µM): 35%; target mRNA inhibition (MM.1R, 0.25 µM): 23%; target mRNA inhibition (MM.1R, 4 µM): 87% |
| GTGTGCTTGCCAAGCC (sugars kkdddddddddkekek, PS) | – | 41% and 39% | – |

| Sequence | target mRNA inhibition (SK-MEL-28, 4 µM) | target mRNA inhibition (MM.1R, 1 µM) | also measured |
| --- | --- | --- | --- |
| GTGTTCCAGGAGATAT (sugars k3 d10 k3, PS) | – | 30% | – |
| GTTAAAGCAGCATAAT (sugars k3 d10 k3, PS) | 27% | – | – |
| GTTAAGTACTTGGACA (sugars k3 d10 k3, PS) | 32% | – | – |
| GTTAATAATGCTTGCA (sugars k3 d10 k3, PS) | 2% | – | – |
| GTTACCGCATTGCTAG (sugars k3 d10 k3, PS) | – | 16% | – |
| GTTACTAATTCCATAG (sugars k3 d10 k3, PS) | 49% | – | – |
| GTTCAAAGCGCACCGC (sugars k3 d10 k3, PS) | 65% | – | – |
| GTTCATACCCAATAGT (sugars k3 d10 k3, PS) | 66% | – | – |
| GTTCATATCACAGAGC (sugars k3 d10 k3, PS) | 45% | – | – |
| GTTCCTGTCACCTGGC (sugars k4 d8 k4, PS) | 12% | – | – |
| GTTCTCTACTGTTTGT (sugars k3 d10 k3, PS) | 68% | – | – |
| GTTGCATAGGCATCCT (sugars k3 d10 k3, PS) | – | 27% | – |
| GTTGCATGGCTAATGA (sugars k3 d10 k3, PS) | 61% | – | – |
| GTTGCCGAGATATAAA (sugars k3 d10 k3, PS) | – | 13% | – |
| GTTGGCTGGTCTTTGT (sugars k3 d10 k3, PS) | – | 63% | – |
| GTTGGCTGGTCTTTGT (sugars kdddddddddkekeke, PS) | – | 18% | – |
| GTTGGCTGGTCTTTGT (sugars kkdddddddddkekek, PS) | – | 62% | – |
| GTTGTAAATGAGTCGG (sugars e1 k2 d9 k2 e2, PS) | – | 69% | target mRNA inhibition (MM.1R, 0.074 µM): 17%; target mRNA inhibition (MM.1R, 0.222 µM): 38%; target mRNA inhibition (MM.1R, 0.666 µM): 57%; target mRNA inhibition (MM.1R, 2 µM): 79% |
| GTTGTACAGGACAGGT (sugars k3 d10 k3, PS) | – | 33% | – |
| GTTGTAGTCCTGCTTG (sugars k3 d10 k3, PS) | 22% | – | – |
| GTTGTCTGGCTAGCAG (sugars k3 d10 k3, PS) | 59% | – | target mRNA inhibition (SK-MEL-28, 0.185 µM): 20%; target mRNA inhibition (SK-MEL-28, 5 µM): 70%; target mRNA inhibition (SK-MEL-28, 15 µM): 89% |
| GTTTACACTGGATCTG (sugars k3 d10 k3, PS) | 61% | – | – |
| GTTTACTAACTGGCTT (sugars k3 d10 k3, PS) | 27% | – | – |
| TAAAAGGTTCCTGTCA (sugars k4 d8 k4, PS) | 43% | – | – |
| TAAAGAGCGCATTTCA (sugars k3 d10 k3, PS) | 41% | – | – |

| Sequence | target mRNA inhibition (SK-MEL-28, 4 µM) | target mRNA inhibition (MM.1R, 1 µM) | also measured |
| --- | --- | --- | --- |
| TAAAGATGCCAGAGGG (sugars k3 d10 k3, PS) | 39% | – | – |
| TAAATCACCCTGGTCA (sugars k3 d10 k3, PS) | 22% | – | – |
| TAACAAGTTATCCAGT (sugars k3 d10 k3, PS) | 12% | – | – |
| TAACAATACTGTAAGG (sugars k3 d10 k3, PS) | 45% | – | – |
| TAACACGGTGTTGACA (sugars k3 d10 k3, PS) | 35% | – | – |
| TAACTTCTCCTGTGCA (sugars k3 d10 k3, PS) | – | 15% | – |
| TAATATAGTTGTCTGG (sugars k3 d10 k3, PS) | 40% | – | – |
| TAATTTTAAGGCCCTG (sugars k3 d10 k3, PS) | 39% | – | – |
| TACAGGACAGGTAAAG (sugars k3 d10 k3, PS) | – | -29% | – |
| TACATGGCAGTGGAGC (sugars k3 d10 k3, PS) | 71% | – | – |
| TACATTCACACTGCCG (sugars k3 d10 k3, PS) | 50% and 58% | – | target mRNA inhibition (MM.1R, 0.074 µM): -3%; target mRNA inhibition (MM.1R, 0.222 µM): 2%; target mRNA inhibition (MM.1R, 0.666 µM): 15%; target mRNA inhibition (MM.1R, 2 µM): 9% |
| TACCCTGGATCACTCA (sugars k3 d10 k3, PS) | 65% | – | – |
| TACCGATGCTTCAAGA (sugars k3 d10 k3, PS) | – | -3% | – |
| TACCTCAGTTTGTGAA (sugars k3 d10 k3, PS) | – | 11% | – |
| TACGACAACTTTCCTG (sugars k3 d10 k3, PS) | 41% | – | – |
| TACTAACTGGCTTCCA (sugars k3 d10 k3, PS) | 28% | – | – |
| TACTAGGTGCTTGTTG (sugars k3 d10 k3, PS) | 49% | – | – |
| TACTGCTTGAGGTTTT (sugars kddddddddddkekek, PS) | – | 24% | – |
| TACTGTTACCGATGCT (sugars k3 d10 k3, PS) | – | 37% and 18% | target mRNA inhibition (MM.1R, 0.0625 µM): -6%; target mRNA inhibition (MM.1R, 0.25 µM): -4%; target mRNA inhibition (MM.1R, 4 µM): 38% |
| TACTGTTACCGATGCT (sugars kdddddddddkekeke, PS) | – | 18% | – |
| TACTGTTACCGATGCT (sugars kkdddddddddkekek, PS) | – | 9% and 27% | – |
| TAGAAAGAGCTGGTAG (sugars k3 d10 k3, PS) | 9% | – | – |
| TAGAAGCCCACAAGAA (sugars k3 d10 k3, PS) | 1% | – | – |
| TAGCAAATGGCAAGTT (sugars k3 d10 k3, PS) | 17% | – | – |
| TAGCAGAGGTTCTACG (sugars k3 d10 k3, PS) | 24% | – | – |

| Sequence | target mRNA inhibition (SK-MEL-28, 4 µM) | target mRNA inhibition (MM.1R, 1 µM) | also measured |
| --- | --- | --- | --- |
| TAGCATGGATCCTGAG (sugars k3 d10 k3, PS) | 0% | – | – |
| TAGGACTAAGGACAGC (sugars k3 d10 k3, PS) | – | -5% | – |
| TAGGCACATCAATGTT (sugars k3 d10 k3, PS) | – | 12% | – |
| TAGGTCATACCCTGGA (sugars k3 d10 k3, PS) | 72% | – | – |
| TAGTAGGTAAGATCTC (sugars k3 d10 k3, PS) | 23% | – | – |
| TAGTATGAGAAACGGC (sugars e1 k2 d9 k2 e2, PS) | – | 38% | – |
| TAGTATGAGAAACGGC (sugars k2 d9 e3 k2, PS) | – | 37% | – |
| TAGTATGAGAAACGGC (sugars k3 d10 k3, PS) | 78% | – | target mRNA inhibition (H929, 0.04 µM): 33% and 47%; target mRNA inhibition (KMS11, 0.2 µM): 65% and 85% |
| TAGTATGAGAAACGGC (sugars kdddddddddkekeke, PS) | – | 32% | – |
| TAGTATGAGAAACGGC (sugars kkdddddddddkekek, PS) | – | 27% | – |
| TAGTCGACAGCTAAAG (sugars k3 d10 k3, PS) | 46% | – | – |
| TAGTGCTGTGCAGACC (sugars k3 d10 k3, PS) | 32% | – | – |
| TAGTGTCGCCATGGCT (sugars k3 d10 k3, PS) | 69% | – | – |
| TATAACGGTGTTTCAG (sugars k3 d10 k3, PS) | – | 36% | – |
| TATACCAACGACAGCA (sugars k3 d10 k3, PS) | 49% | – | – |
| TATAGAATTAGGTGCT (sugars k3 d10 k3, PS) | 40% | – | – |
| TATAGCACTCTCCTAT (sugars k3 d10 k3, PS) | 2% | – | – |
| TATATAGAATTAGGTG (sugars k3 d10 k3, PS) | -16% | – | – |
| TATCAAAGATCTCCAC (sugars k3 d10 k3, PS) | 25% | – | – |
| TATCAGATACACACCC (sugars k3 d10 k3, PS) | 19% | – | – |
| TATCAGGATCTCAAGG (sugars k3 d10 k3, PS) | 6% | – | – |
| TATCATCCGAAAAGAC (sugars k3 d10 k3, PS) | – | 3% | – |
| TATCCTGTAGTATGAG (sugars k3 d10 k3, PS) | – | 42% | – |
